The subject of the test is HeLa cells. The test is described as follows: Cell proliferation assay (XTT), cytostatic activity. It is filed as cell-based. The settings on record: 72-h treatment, XTT cell proliferation kit. The protocol: […] cells were seeded in 96-well plates and incubated in the presence or the absence of the indicated compounds at concentrations ranging from 10^-5 to 10^-12 M. The cytostatic activity was measured after 72-h treatments using the XTT (sodium 3'-[1-(phenylaminocarbonyl)-3,4-tetrazolium]-bis(4- methoxy-6-nitro)-benzenesulfonic acid hydrate) cell proliferation kit (Roche Molecular Biochemicals; Mannheim, Germany) following the manufacturer's specifications. Each condition was seeded in triplicate, and experiments were repeated three times to calculate IC values by non-linear regression fitting the data.

The values that follow come from patent EP4620466A1, “TRIMETHOXYSTYRYL DERIVATIVES FOR USE IN THE TREATMENT OF PACLITAXEL-RESISTANT CANCER” (Instituto de Investigación Biomédica de Salamanca De la …, priority 2024, dated 2025).

pIC50: −log10 of the molar value.

Take `COc1ccc(C(C)c2ccc3c(ccn3C)c2)c(OC)c1OC` (stereo not shown) [Compound 14, 1-Methyl-5-(1-(2,3,4-trimethoxyphenyl)ethyl)-1H-indole]: the negative logarithm of the IC50 (pIC50) (Homo sapiens) was 6.51.
Same read-out and setting: under `C=C(c1cc(OC)c(OC)c(OC)c1)c1ccc2c(c1)c(C=NN)cn2C` [Compound 21, (1-Methyl-5-[1-(3,4,5-trimethoxyphenyl)vinyl]-1H-indol-3-yl)methylene hydrazine] stands 7.42; under `COc1cc(C(=O)c2ccc3c(c2)c(C=O)cn3C)cc(OC)c1OC` [Compound 9, 1-Methyl-5-[1-(3,4,5-trimethoxybenzoyl)]-1H-indole-3-carbaldehyde], 6.49; under `COc1cc(C(=O)c2ccc3c(c2)c(C=O)cn3C)cc(SC)n1` [Compound 84, 5-(2-methoxy-6-(methylsulfanyl)isonicotinoyl)-1-methyl-1H-indole-3-carbaldehyde], below 6.00.
Still for that read-out and setting: under `COc1cc(C(=O)c2ccc3c(c2)c(C#N)cn3C)cc(SC)n1` [Compound 87, 5-(2-methoxy-6-(methylsulfanyl)isonicotinoyl)-1-methyl-1H-indole-3-carbonitrile] stands 6.10.
For the molecule `C=C(c1cc(Cl)nc(SC)c1)c1ccc2c(c1)c(C(N)=O)cn2C` [Compound 70, 5-(1-(2-chloro-6-(methylsulfanyl)pyridin-4-yl)vinyl)-1-methyl-1H indole-3-carboxamide], the pIC50 (Homo sapiens) is below 6.00.
Same read-out and setting: under `C=C(c1cc(OC)c(OC)c(OC)c1)c1ccc2c(c1)c(CO)cn2C` [Compound 17, 1-Methyl-5-[1-(3,4,5-trimethoxyphenyl)vinyl]-1H-indol-3-ylmethanol] stands 6.51.
With “1-Methyl-5-(2,3,4- trimethoxybenzoyl)-1H-indole-3-carbonitrile [Compound 26]”, the negative-log IC50 (pIC50) is below 6.00.
Molecule `COc1cc(C(O)c2ccc3c(ccn3C)c2)cc(OC)c1OC` (stereo not shown) [Compound 1, (1-methyl-1H-indol-5-yl)(3,4,5-trimethoxyphenyl)methanol] showed a negative logarithm of the IC50 (pIC50) (Homo sapiens) below 6.00.
Same read-out and setting: under `C=C(c1ccc2c(c1)c(C=O)cn2C)c1ccc(OC)c(OC)c1OC` [Compound 12, 1-Methyl-5-[1-(2,3,4-trimethoxyphenyl)vinyl]-1H-indole-3-2carbaldehyde] stands 7.49.
For “5-(N-(3,5-dimethoxyphenyl)sulfamoyl)-1-methyl-1H-indole-3-carboxamide [Compound 54]”, the pIC50 was 5.75.
Take `Cn1cc(C=O)c2cc(C(=O)c3cc(Cl)nc(Cl)c3)ccc21` [Compound 57, 5-(2,6-dichloroisonicotinoyl)-1-methyl-1H-indole-3-carbaldehyde]: the pIC50 (Homo sapiens) is below 6.00.
Same read-out and setting: the figure for `C=C(c1cc(OC)c(OC)c(OC)c1)c1ccc2c(c1)c(C=NO)cn2C` [Compound 19, 1-Methyl-5-[1-(3,4,5-trimethoxyphenyl)vinyl]-1H-indole-3-carbaldehyde oxime] is 8.21; for `C=C(c1cc(OC)c(OC)c(OC)c1)c1ccc2c(c1)c(C(=O)O)cn2C` [Compound 16, 1-Methyl-5-(1-(3,4,5-trimethoxyphenyl)vinyl)-1H-indole-3-carboxylic acid] it is below 5.00; for `COc1ccc(C(O)c2ccc3c(ccn3C)c2)c(OC)c1OC` (stereo not shown) [Compound 2, (1-methyl-1H-indol-5-yl)(2,3,4-trimethoxyphenyl)methanol] it is below 6.00.
Molecule `COc1ccc(C(=O)c2ccc3c(ccn3C)c2)c(OC)c1OC` [Compound 4, (1-methyl-1H-indol-5-yl)(2,3,4-trimethoxyphenyl)methanone] gave a pIC50 (Homo sapiens) of 7.77.
Still for that read-out and setting: the figure for `C=C(c1cc(SC)nc(SC)c1)c1ccc2c(c1)c(C=O)cn2C` [Compound 77, 5-(1-(2,6-bis(methylsulfanyl)pyridin-4-yl)vinyl)-1-methyl-1H-indole-3-carbaldehyde] is 7.00; for `CSc1cc(C(=O)c2ccc3c(ccn3C)c2)cc(SC)n1` [Compound 73, (2,6-Bis(methylsulfanyl)pyridin-4-yl) (1-methyl-1H-indol-5-yl)methanone] it is 6.70; for `C=C(c1cc(SC)nc(SC)c1)c1ccc2c(c1)c(C(=O)O)cn2C` [Compound 80, 5-(1-(2,6-Bis(methylsulfanyl)pyridin-4-yl)vinyl)-1-methyl-1H-indole-3-carboxylic acid] it is below 6.00.
The same measure, in the same setting: under `Cn1cc(C#N)c2cc(C(=NO)c3cc(Cl)nc(Cl)c3)ccc21` [Compound 60, 5-((2,6-dichloropyridin-4-yl)(hydroxyimino)methyl)-1-methyl-1H-indole-3-carbonitrile] stands below 6.00.
Consider `C=C(c1cc(SC)nc(N(C)C)c1)c1ccc2c(c1)c(C=O)cn2C` [Compound 93, 5-(1-(2-(dimethylamino)-6-(methylthio)pyridin-4-yl)vinyl)-1-methyl-1H-indole-3-carbaldehyde], for which the pIC50 (Homo sapiens) is 6.52.
In turn, `COc1ccc(C(C)c2ccc3c(c2)c(C=NN)cn3C)c(OC)c1OC` (stereo not shown) [Compound 22] had a pIC50 of 6.38.
Regarding `CN(C)c1cc(C(=O)c2ccc3c(ccn3C)c2)cc(Cl)n1` [Compound 98, (2-chloro-6-(dimethylamino)pyridin-4-yl)(1-methyl-1H-indol-5-yl)methanone], the negative logarithm of the IC50 (pIC50) (Homo sapiens) is below 6.00.
`C=C(c1cc(SC)nc(SC)c1)c1ccc2c(c1)c(C#N)cn2C` [Compound 79, 5-(1-(2,6-bis(methylsulfanyl)pyridin-4-yl)vinyl)-1-methyl-1H-indole-3-carbonitrile] showed a negative logarithm of the IC50 (pIC50) (Homo sapiens) of 6.22.
In the case of `C=C(c1cc(Cl)nc(N(C)C)c1)c1ccc2c(ccn2C)c1` [Compound 99, 6-chloro-N,N-dimethyl-4-(1-(1-methyl-1H-indol-5-yl)vinyl)pyridin-2-amine], under “Homo sapiens”, the negative logarithm of the IC50 (pIC50) is 7.00.
The same measure, in the same setting: the figure for `CSc1cc(C(=O)c2ccc3c(c2)c(C=O)cn3C)cc(Cl)n1` [Compound 67, 5-(2-Chloro-6-(methylsulfanyl)isonicotinoyl)-1-methyl-1H indole-3-carbaldehyde] is below 6.00; for `CSc1cc(C(=O)c2ccc3c(ccn3C)c2)cc(N(C)C)n1` [Compound 89, (2-(dimethylamino)-6-(methylthio)pyridin-4-yl)(1-methyl-1H-indol-5-yl)methanone] it is 6.30.
On the same count and under the same terms, the figure for `C=C(c1cc(Cl)nc(Cl)c1)c1ccc2c(c1)c(C#N)cn2C` [Compound 62, 5-(1-(2,6-dichloropyridin-4-yl)vinyl)-1-methyl-1H-indole-3-carbonitrile] is 7.10.
Molecule `C=C(c1cc(Cl)nc(N(C)C)c1)c1ccc2c(c1)c(C=O)cn2C` [Compound 101, 5-(1-(2-chloro-6-(dimethylamino)pyridin-4-yl)vinyl)-1-methyl-1H-indole-3-carbaldehyde] had a pIC50 (Homo sapiens) below 6.00.
Still for that read-out and setting: the figure for `Cn1ccc2cc(C(=O)c3cc(Cl)nc(Cl)c3)ccc21` [Compound 55, (2,6-dichloropyridin-4-yl)(1-methyl-1H-indol-5-yl)methanone] is 6.10.
On the same count and under the same terms, under `CSc1cc(C(=NO)c2ccc3c(ccn3C)c2)cc(N(C)C)n1` [Compound 91, (2-(Dimethylamino)-6-(methylthio)pyridin-4-yl)(1-methyl-1H-indol-5-yl)methanone oxime] stands 6.22.
`COc1cc(C(=NO)c2ccc3c(c2)c(C#N)cn3C)cc(SC)n1` [Compound 88] had a pIC50 below 6.00.
Where the note is “Homo sapiens”, `C=C(c1cc(Cl)nc(N(C)C)c1)c1ccc2c(c1)c(C#N)cn2C` [Compound 100, 5-(1-(2-chloro-6-(dimethylamino)pyridin-4-yl)vinyl)-1-methyl-1H-indole-3-carbonitrile] showed a pIC50 of 6.22.
Consider `C=C(c1cc(Cl)nc(Cl)c1)c1ccc2c(ccn2C)c1` [Compound 56, 5-(1-(2,6-dichloropyridin-4-yl)vinyl)-1-methyl-1H-indole], for which the pIC50 (Homo sapiens) was 7.40.
Molecule `CSc1cc(C(=NO)c2ccc3c(ccn3C)c2)cc(Cl)n1` (mixture of isomers) [Compound 66, (E/Z)-(2-chloro-6-(methylsulfanyl)pyridin-4-yl) (1-methyl-1H-indol-5-yl)methanone oxime] had a negative logarithm of the IC50 (pIC50) (Homo sapiens) of 6.52.
The same measure, in the same setting: the figure for `C=C(c1ccc2c(c1)c(C=NO)cn2C)c1ccc(OC)c(OC)c1OC` [Compound 20, 1-Methyl-5-[1-(2,3,4-trimethoxyphenyl)vinyl]-1H-indol-3-carbaldehyde oxime] is 7.47; for `COc1ccc(/C(=N\O)c2ccc3c(ccn3C)c2)c(OC)c1OC` [Compound 8, Z-(1-methyl-1H-indol-5-yl)(2,3,4-trimethoxyphenyl)methanone oxime] it is 7.12.
On the same count and under the same terms, under `COc1cc(C(=O)c2ccc3c(ccn3C)c2)cc(OC)c1OC` [Compound 3, (1-methyl-1H-indol-5-yl)(3,4,5-trimethoxyphenyl)methanone] stands 7.60; under `C=C(c1cc(SC)nc(N(C)C)c1)c1ccc2c(ccn2C)c1` [Compound 90, N,N-dimethyl-4-(1-(1-methyl-1H-indol-5-yl)vinyl)-6-(methylthio)pyridin-2-amine], 6.70; under `COc1cc(/C=C\c2ccc3c(ccn3C)c2)cc(OC)c1OC` [Compound 27, (Z)-1-Methyl-5-[2-(3,4,5-trimethoxyphenyl)vinyl)-1H-indole], 6.60.
The same measure, in the same setting: the figure for `CSc1cc(C(=O)c2ccc3c(ccn3C)c2)cc(Cl)n1` [Compound 64, (2-chloro-6-(methylthio)pyridin-4-yl)(1-methyl-1H-indol-5-yl)methanone] is 6.52.
On to `C=C(c1ccc2c(c1)c(C#N)cn2C)c1ccc(OC)c(OC)c1OC` [Compound 24, 1-Methyl-5-[1-(2,3,4-trimethoxyphenyl)vinyl]-1H-indole-3-carbonitrile], for which the negative-log IC50 (pIC50) (Homo sapiens) is 7.49.
Still for that read-out and setting: the figure for `C=C(c1cc(Cl)nc(Cl)c1)c1ccc2c(c1)c(C=O)cn2C` [Compound 58, 5-(1-(2,6-dichloropyridin-4-yl)vinyl)-1-methyl-1H-indole-3-carbaldehyde] is 6.70.
